From paper PMC3748103, “Characterization of FKGK18 as Inhibitor of Group VIA Ca^2+-Independent Phospholipase A2 (iPLA2β): Candidate Drug for Preventing Beta-Cell Apoptosis and Diabetes” (PLoS ONE, 2013)

Target: T1, iPLA2β (Group VIA Ca^2+-independent phospholipase A2) (Rattus norvegicus, UniProt P97570)
T1 construct: gene Pla2g6; iPLA2β overexpressed in INS-1 insulinoma cells (OE), cytosol
T1 sequence (P97570 1-807): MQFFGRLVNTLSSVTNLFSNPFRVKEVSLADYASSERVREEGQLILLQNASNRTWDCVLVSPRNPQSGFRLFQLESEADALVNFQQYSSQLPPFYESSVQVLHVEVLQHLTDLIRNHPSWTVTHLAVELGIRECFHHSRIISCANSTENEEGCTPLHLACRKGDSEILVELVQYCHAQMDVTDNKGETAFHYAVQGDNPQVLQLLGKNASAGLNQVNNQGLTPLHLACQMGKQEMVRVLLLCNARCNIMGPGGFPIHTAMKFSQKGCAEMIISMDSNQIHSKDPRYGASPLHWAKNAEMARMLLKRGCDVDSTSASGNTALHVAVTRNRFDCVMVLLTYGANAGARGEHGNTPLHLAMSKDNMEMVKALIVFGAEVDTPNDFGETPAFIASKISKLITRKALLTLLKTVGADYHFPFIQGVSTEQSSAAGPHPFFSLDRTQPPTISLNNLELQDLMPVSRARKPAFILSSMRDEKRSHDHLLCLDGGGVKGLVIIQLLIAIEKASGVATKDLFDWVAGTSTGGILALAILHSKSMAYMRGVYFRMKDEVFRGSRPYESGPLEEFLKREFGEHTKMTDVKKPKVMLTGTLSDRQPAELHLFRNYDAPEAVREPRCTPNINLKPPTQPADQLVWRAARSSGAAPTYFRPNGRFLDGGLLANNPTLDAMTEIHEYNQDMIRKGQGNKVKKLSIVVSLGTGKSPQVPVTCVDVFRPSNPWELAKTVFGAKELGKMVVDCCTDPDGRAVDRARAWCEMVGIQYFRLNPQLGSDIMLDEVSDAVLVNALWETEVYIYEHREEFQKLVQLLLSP
Assay: radioactive PLA2 activity assay ([…]-PAPC) in cytosol of iPLA2β-overexpressing INS-1 cells
Type: biochemical

SMILES	IC50 [nM]
O=C(CCCCc1ccc2ccccc2c1)C(F)(F)F [FKGK18, 1,1,1-trifluoro-6-(naphthalen-2-yl)hexan-2-one]	~50
O=C1O/C(=C/Br)CC[C@@H]1c1cccc2ccccc12 [R-BEL, (E)-6-(bromo-methylene) tetrahydro-3-(1-naphthalenyl)-2H-pyran-2-one]	~3000
